Assay results as given in patent publication US8741659B2, “Composition for measuring the binding affinity between nucleic acid and test substance, and use thereof” (Osaka University, priority 2007, dated 2014).

Tested on: RRE
Assay: Fluorescence titration / evaluation of binding with RRE
Set-up: species or system HIV-1
Protocol: In this Example, binding between RRE and X2S was evaluated by a method identical to the method in Example 2.
The […] of RRE is shown in SEQ ID NO: 8. […] RRE was purchased from Hokkaido System Science Co., Ltd.
Firstly, the X2S solution obtained in Example 1 was diluted with a cacodylate buffer solution (sodium cacodylate: 10 mM, pH 7.0; NaCl: 100 mM), so that a concentration of X2S became 2 μM. To the 2-μM X2S solution thus obtained, RRE was added in steps at 0 μM, 1 μM, 2 μM, 3 μM, 4 μM, 5 μM, 6 μM, and 8 μM. Further, a fluorescence intensity of the 2-μM X2S solution was measured at each concentration. The fluorescence intensity was measured in the same manner as in Example 2.
FIG. 7 is a view illustrating a result of evaluation of binding between X2S and RRE. In FIG. 7, the horizontal axis represents the fluorescence wavelength, whereas the vertical axis represents the fluorescence intensity. […] Other figures include such arrows for results of measurements of fluorescence intensities.
FIG. 8 is a view plotting the fluorescence intensities at a measured wavelength of 453 nm shown in the result illustrated in FIG. 7. The horizontal axis represents the concentration of RRE, whereas the vertical axis represents the fluorescence intensity.
Then, changes in fluorescence intensities were observed.
Firstly, X2S, X2S(3), X2S(4), X2S(5), X2S(2-Me), and 3,6-X2S(2) were respectively mixed with cacodylate buffer solutions (sodium cacodylate: 10 mM, pH 7.0; NaCl: 100 mM) each at 1.0 μM, so that solutions of the respective compounds were obtained. RRE used in this Example was the same as that used in Example 4. RRE was added to each of the solutions of the respective compounds in steps at 0.0 μM, 0.2 μM, 0.4 μM, 0.8 μM, and 1.0 μM.
Each of the solutions to which RRE was added was irradiated with light, and a fluorescence intensity was measured. A device used for measuring the fluorescence intensity was the same as that used in Example 13. A variation in a slit width was also the same as that in Example 14.
FIG. 39 is a graph illustrating a relationship between a concentration of RRE added and a fluorescence intensity of each compound. Further, FIG. 39 is also a view plotting the fluorescence intensities of the respective fluorescence peaks shown in the results illustrated in FIGS. 33 to 38. FIG. 40 is a view plotting residual fluorescence intensities (%) which were obtained based on the results shown in FIGS. 33 to 38, assuming that the fluorescence intensities of the respective fluorescence peaks observed at a concentration of 0.0 μM of RRE were 100%. In each of FIGS. 39 and 40, the horizontal axis represents the concentration of the RNA. In FIG. 39, the vertical axis represents the fluorescence intensity. In FIG. 40, the vertical axis represents the residual fluorescence intensity (%).
FIG. 41 is a view plotting values obtained by dividing (i) the residual fluorescence intensities (%) obtained in the case involving use of the double strand RNA by (ii) the residual fluorescence intensities (%) obtained in the case involving use of RRE. That is, FIG. 41 is a view plotting values obtained by dividing (i) the residual fluorescence intensity (%) shown in FIG. 32 by (ii) the residual fluorescence intensities (%) shown in FIG. 40. FIG. 42 is a view plotting values obtained by subtracting (i) the residual fluorescence intensities (%) obtained in the case involving use of RRE from (ii) the residual fluorescence intensities (%) obtained in the case involving use of the double strand RNA. That is, FIG. 42 is a view plotting values obtained by subtracting (i) the residual fluorescence intensities (%) shown in FIG. 40 from (ii) the residual fluorescence intensities (%) shown in FIG. 32.
In this Example, 1-Pyrenemethanamide, hydrochloride was caused to bind to a double strand RNA or RRE. Then, a change in a fluorescence intensity was observed. […]

NCCOc1ccc2oc3ccc(OCCN)cc3c(=O)c2c1 [X2S, 2,7-bis(2-aminoethoxy)xanthen-9-one]
reduction of fluorescence intensity (residual fluorescence intensity) on binding RRE (1.0 μM compound, RRE 0.0-1.0 μM): particularly high reduction rates
fluorescence of X2S on binding to RRE (2 μM X2S, RRE 0-8 μM, 453 nm): fluorescence of X2S is quenched
difference in quenching efficiency between RRE and double strand RNA (FIGS. 41 and 42, 1.0 μM compound): greatest
